# Data: paper PMC11674305, “Inhibition of Neural Crest Cell Migration by Strobilurin Fungicides and Other Mitochondrial Toxicants” (Cells, 2024)
# What was measured:
# [1] = cited from earlier work
# complex III (cIII) = molecular target: T1, complex III (cIII) (Homo sapiens, UniProt P00156); experiment: Electron transport chain complex activity in permeabilized NCC (Seahorse); assay type: cell-based; settings: 60 μM (BMC10(V) of cMINC)
# T1 construct: endogenous in cells; host or cells: neural crest cells (NCC), digitonin-permeabilized
# From the text: Magel et al. (2024): Inhibition of neural crest cells migration by strobilurin fungicides
# Figure S9. Inhibition of electron transport chain complexes by picoxystrobin in neural crest […]
# NCC were exposed to the BMC10(V) of the cMINC assay (60 μ M). The grey area indicates th e non-significant range of the assay (≤ 25% change). The effect on complex IV (cIV) was non-significant (green bar). The purple bar indicates complex III (cIII) inhibition. Yellow bars […]
# that for these assays, the electrons have to pass cIII to reach cIV (oxygen consumption), i.e. electrons from cI (or cII) cannot be used for the reduction of oxygen, as they need to flow through cIII (which is blocked). The pattern of inhibition is indicative of cIII as illustrated earlier (Delp et al., 2019; van der Stel et al., 2020).
# To investigate the inhibition pattern of picoxystrobin, NCC were permeabilized and complex-specific substrates and inhibitors were sequentially injected as described earlier (Delp et al., 2019). In detail, cells were permeabilized with MAS buffer (220 mM mannitol, 1 mM ADP, 70 mM sucrose, 10 mM KH2PO4, 5 mM MgCl2, 2 mM HEPES, 1 mM EGTA, 4 mg/ml fatty acid-free BSA, pH = 7.2) supplemented with 25 μ g/mL digitonin. Seahorse measurements were started directly afterwards, and basal OCRs were assessed for internal normalization. Then picoxystrobin was injected and cI activity was assessed. […]
# neural crest cells (NCC) [2] = experiment: Seahorse oxygen consumption rate (mitochondrial stress test); assay type: cell-based, human
# Protocol: The Seahorse bioanalyzer simultaneously measures cellular oxygen consumption rates (OCR) and extracellular acidification rates (ECAR). Therefore, NCCs were seeded at least two days prior to the assays at a density of 80,000 cells/well on Seahorse XF96 V3 PS Cell Culture Microplates (Agilent, Santa Clara, CA, USA) in either glucose medium or galactose medium. After 24 h, the medium was exchanged. For the real-time ATP production rate and mitochondrial stress assay, the cartridge was hydrated at 0% CO2 and 37 °C, and the seahorse was turned on to stabilize the temperature one day prior. The medium was changed to Seahorse XF DMEM Medium (Agilent, Santa Clara, CA, USA) supplemented with 2 mM L-glutamine, 1 mM pyruvate and 18 mM glucose or galactose 1 h before the start of the assays. Directly before the start of the assay, the medium was exchanged again. The sensor cartridge was loaded with the test compounds anchored to the BMC10 (V) of the cMINC screen and the recommended concentrations of calibration compounds for a mitochondrial stress test. These were 5 μM oligomycin, 15 μM carbonyl cyanide p-trifluoro methoxyphenylhydrazone (FCCP) and 5 μM rotenone plus 5 μM antimycin A. Additionally, 1 μg/mL H-33342 was added to the rotenone and antimycin A injection to perform afterwards a cell count (Cellomics, Waltham, MA, USA), to which the data were normalized. Six technical replicates were used for control conditions, and three technical replicates were used for other samples. The software Seahorse Analytics (Agilent, Santa Clara, CA, USA) was used for the evaluation (https://seahorseanalytics.agilent.com (accessed on 30 October 2024)).
# neural crest cells (NCC) [3] = experiment: Intracellular ATP measurement (CellTiterGlo); assay type: cell-based, human; settings: after 60 min, at BMC10 (V) of cMINC
# Protocol: Cells were seeded at a density of 20,000 cells/well. The NCCs were treated with the BMC10 (V) of the cMINC screen for one hour, six hours or 24 h. Then, a CellTiterGlo-Triton mix was prepared. Therefore, a 0.5% Triton solution in PBS was prepared, and the commercial reagent mix CellTiterGlo 2.0 (Promgea, Madison, WI, USA) was added in a 1:1 ratio. An amount of 50 µL/well of the mix was added to 100 µL of medium. The plate was shaken for two minutes, and 100 µL of the cell mixture was transferred to a white measurement plate. For the blank value, only medium with the mix was measured. Luminescence data of samples were normalized to DMSO solvent controls, and the ATP data are given in % relative to “untreated cells”.
compound,measurement,setting,value
"CO/C=C(/C(=O)OC)c1ccccc1COc1cccc(C(F)(F)F)n1 [Picoxystrobin, picoxystrobin]",blood to plasma ratio,[1],0.71
same,fraction unbound in blood plasma,[1],0.0127
same,effect on complex III (cIII),complex III (cIII),inhibition of complex III
same,lowering of OCR POD by 24 h pre-treatment,neural crest cells (NCC) [2]; 24 h pre-treatment vs acute exposure,10 fold
same,"BMC25 (OCR), POD","neural crest cells (NCC) [2]; 24 h pre-treatment, galactose medium",0.4 µM
same,ATP levels,neural crest cells (NCC) [3],did not decrease
